In experiment [1] the target is T1, neuronal nicotinic acetylcholine receptors (Rattus norvegicus, UniProt P09483+P12390).
T1 construct: crude synaptic membrane preparations from whole rat brain; from tissue; host or cells: whole rat brain, crude synaptic membranes
Put plainly: [3H]-cytisine binding to neuronal nicotinic acetylcholine receptors, crude synaptic membranes from whole rat brain. Here is the method:
The in vitro protocols for determination of nicotinic acetylcholine channel receptor binding potencies of ligands was determined as follows.
Binding of [^3H]-cytisine ([^3H]-CYT) to neuronal nicotinic acetylcholine receptors was accomplished using crude synaptic membrane preparations from whole rat brain (Pabreza et al., Molecular Pharmacol., 1990, 39:9). Washed membranes were stored at −80° C. prior to use. Frozen aliquots were slowly thawed and resuspended in 20 volumes of buffer (containing: 120 mM NaCl, 5 mM KCl, 2 mM MgCl2, 2 mM CaCl2 and 50 mM Tris-Cl, pH 7.4 @4° C.). After centrifuging at 20,000×g for 15 minutes, the pellets were resuspended in 30 volumes of buffer.
The test compounds were dissolved in water to make 10 mM stock solutions. Each solution was then diluted (1:100) with buffer (as above) and further taken through seven serial log dilutions to produce test solutions from 10^−5 to 10^−11 M.
Homogenate (containing 125-150 µg protein) was added to triplicate tubes containing the range of concentrations of test compound described above and [^3H]-CYT (1.25 nM) in a final volume of 500 μL. Samples were incubated for 60 minutes at 4° C., then rapidly filtered through Whatman GF/B filters presoaked in 0.5% polyethyleneimine using 3×4 mL of ice-cold buffer. The filters are counted in 4 mL of Ecolume® (ICN). Nonspecific binding was determined in the presence of 10 μM (−)-nicotine and values were expressed as a percentage of total binding. IC50 values were determined with a four-parameter non-linear regression and IC50 values were converted to K1 values using the Cheng and Prusoff correction (K1=IC50/(1+[ligand]/Kd of ligand).
Each Example number corresponds to the synthetic Examples described above. […] The lower the Ki value, the more affinity for neuronal nicotinic acetylcholine receptors.

A further experiment deals with mouse hot plate paradigm. The experiment in a line: mouse hot plate paradigm (analgesia, latency until tenth jump). The following applies: mice, intraperitoneal, dosed 30 minutes prior to testing, hot plate 55° C.; for Analgesic MED (μmol/kg): footnote symbols for no effect; for Analgesic MED: minimally effective dose among the doses tested. Type of experiment: in vivo. Here is the method: An in vivo protocol was utilized to determine the effectiveness of nicotinic acetylcholine receptor ligands as analgesic agents in the mouse hot plate paradigm.
Separate groups of mice, (n=8/group) were utilized for each dose group. All drugs were administered by the intraperitoneal route of administration. Test drugs were dissolved in water to make a 6.2 mM stock solution. Animals were dosed with this solution (10 mL/kg body weight) for a 62 micromol/kg dose. Lower doses were administered similarly, following serial dilution of the stock solution in half-log increments. Animals were dosed 30 minutes prior to testing in the hot plate. The hot-plate utilized was an automated analgesia monitor (Model #AHP16AN, Omnitech Electronics, Inc. of Columbus, Ohio). The temperature of the hot plate was maintained at 55° C. and a cut-off time of 180 seconds was utilized. A control was run against each compound tested. Latency until the tenth jump was recorded as the dependent measure. An increase in the tenth jump latency relative to the control was considered a significant effect.

[2] abbreviates: [3H]-CYT 1.25 nM, whole rat brain membranes, 60 minutes at 4° C., Cheng and Prusoff correction, Table 1, read-out: Ki.
Setting [3] is: [3H]-CYT 1.25 nM, whole rat brain membranes, 60 minutes at 4° C., Cheng and Prusoff correction, Table 2, read-out: K1 (nm).

Where two headings read alike, the source gives them in different places.

T1 sequence (P09483 31-630): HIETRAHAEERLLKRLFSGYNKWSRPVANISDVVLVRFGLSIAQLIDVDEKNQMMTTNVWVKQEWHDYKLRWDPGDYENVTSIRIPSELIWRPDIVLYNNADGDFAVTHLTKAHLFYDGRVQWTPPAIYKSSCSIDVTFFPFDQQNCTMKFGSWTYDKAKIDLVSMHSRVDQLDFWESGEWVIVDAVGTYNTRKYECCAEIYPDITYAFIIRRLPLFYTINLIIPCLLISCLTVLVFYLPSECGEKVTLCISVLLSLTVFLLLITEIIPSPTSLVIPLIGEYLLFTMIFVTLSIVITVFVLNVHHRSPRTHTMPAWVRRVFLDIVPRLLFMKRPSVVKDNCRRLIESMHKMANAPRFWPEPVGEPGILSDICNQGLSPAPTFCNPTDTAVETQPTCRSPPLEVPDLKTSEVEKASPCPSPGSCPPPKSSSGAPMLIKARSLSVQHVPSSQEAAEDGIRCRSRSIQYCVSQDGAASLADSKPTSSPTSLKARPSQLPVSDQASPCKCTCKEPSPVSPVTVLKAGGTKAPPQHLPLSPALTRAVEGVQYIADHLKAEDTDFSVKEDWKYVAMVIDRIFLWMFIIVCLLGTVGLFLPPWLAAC
T1 sequence (P12390 25-500): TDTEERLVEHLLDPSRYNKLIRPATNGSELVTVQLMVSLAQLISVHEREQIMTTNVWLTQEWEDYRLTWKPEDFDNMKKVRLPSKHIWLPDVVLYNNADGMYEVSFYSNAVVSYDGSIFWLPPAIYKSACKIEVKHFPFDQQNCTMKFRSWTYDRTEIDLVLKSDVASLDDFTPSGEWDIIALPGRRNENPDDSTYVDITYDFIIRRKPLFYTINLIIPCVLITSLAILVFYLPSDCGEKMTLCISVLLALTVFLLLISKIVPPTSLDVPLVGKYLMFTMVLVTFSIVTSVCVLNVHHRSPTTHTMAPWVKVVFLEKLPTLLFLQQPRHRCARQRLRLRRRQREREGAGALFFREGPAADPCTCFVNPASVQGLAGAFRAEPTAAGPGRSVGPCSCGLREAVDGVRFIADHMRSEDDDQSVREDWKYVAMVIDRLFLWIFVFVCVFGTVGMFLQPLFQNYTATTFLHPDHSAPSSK

Consider “5-[(R)-2-methylamino-1-propyloxy]-2-chloro-3-(4-vinylpyridinyl) pyridine p-toluenesulfonic acid [Example 40]”, for which the Ki in experiment [1] (setting [2]) worked out at 0.0757 nM.

Take “5-[(S)-2-amino-1-butyloxy]-2-chloro-3-(4-vinylpyridinyl) pyridine di-p-toluenesulfonic acid [Example 19]”: the Ki in experiment [1] (setting [2]) is 0.18 nM.

For “5-[(S)-2-amino-3-phenyl-1-propyloxy]-2-chloro-3-(4-vinylpyridinyl) pyridine di-p-toluenesulfonic acid [Example 23]”, the “Analgesic MED (μmol/kg)” value in the experiment with mouse hot plate paradigm is reported as “* (no effect at 62)”. For the same compound, the Ki in experiment [1] (setting [2]) turned out to be 9.89 nM.

Consider “5-[(S)-2-methylamino-3-phenyl-1-propyloxy]-2-chloro-3-(4-vinylpyridinyl) pyridine di-p-toluenesulfonic acid [Example 25]”, for which the Ki in experiment [1] (setting [2]) amounted to 2.61 nM.

Take `CC(N)COc1ccc(Cl)nc1` (stereo in doubt) [Example 26, 5-[(S)-2-amino-1-propyloxy]-2-chloro pyridine p-toluenesulfonic acid]: in the experiment on mouse hot plate paradigm, the “Analgesic MED” value came out at 62 µmol/kg. This compound also returned a Ki in experiment [1] (Ki (nM)) of 5.34 nM.

For the compound `CC(COc1ccc(Cl)nc1)N(C)C` (stereo in doubt) [Example 27, 5-[(S)-2-dimethylamino-1-propyloxy]-2-chloro pyridine p-toluenesulfonic acid], the “Analgesic MED (μmol/kg)” value in the experiment on mouse hot plate paradigm is reported as “* (no effect at 62)”.

Regarding `C[C@H](N)COc1ccc(Cl)nc1.Cc1ccc(S(=O)(=O)O)cc1` [Example 1, 5-[(S)-2-amino-1-propyloxy]-2-chloro pyridine p-toluenesulfonic acid], the “Analgesic MED” value in the experiment with mouse hot plate paradigm worked out at 62 µmol/kg. Further, the Ki in experiment [1] (setting [2]) worked out at 4.51 nM.

As for `C[C@@H](COc1ccc(Cl)nc1)N(C)C.Cc1ccc(S(=O)(=O)O)cc1` [Example 2, 5-[(S)-2-dimethylamino-1-propyloxy]-2-chloro pyridine p-toluenesulfonic acid], the “Analgesic MED” value with mouse hot plate paradigm turned out to be 62 µmol/kg.

Regarding `CN[C@@H](C)COc1ccc(Cl)nc1.Cc1ccc(S(=O)(=O)O)cc1` [Example 3, 5-[(S)-2-methylamino-1-propyloxy]-2-chloro pyridine p-toluenesulfonic acid], the “Analgesic MED” value in the experiment on mouse hot plate paradigm came to 62 µmol/kg. For the same compound, in experiment [1] (setting [2]), the Ki was determined as 40.6 nM.

As to `C[C@H](N)COc1ccc(F)nc1.Cc1ccc(S(=O)(=O)O)cc1` [Example 4, 5-[(S)-2-amino-1-propyloxy]-2-fluoro pyridine p-toluenesulfonic acid], the “Analgesic MED” value with mouse hot plate paradigm was 6.2 µmol/kg. For the same compound, in experiment [1] (setting [2]), the Ki came to 8.69 nM.

Turning to `C[C@@H](COc1ccc(F)nc1)N(C)C.Cc1ccc(S(=O)(=O)O)cc1` [Example 5, 5-[(S)-2-dimethylamino-1-propyloxy]-2-fluoro pyridine p-toluenesulfonic acid], the “Analgesic MED (μmol/kg)” value in the experiment with mouse hot plate paradigm was “* (no effect at 62)”. The Ki in experiment [1] (setting [2]) worked out at 100 nM.

Turning to `CN[C@@H](C)COc1ccc(F)nc1.Cc1ccc(S(=O)(=O)O)cc1` [Example 6, 5-[(S)-2-methylamino-1-propyloxy]-2-fluoro pyridine p-toluenesulfonic acid], the “Analgesic MED (μmol/kg)” value in the experiment with mouse hot plate paradigm is “* (no effect at 62)”. In experiment [1] (setting [2]), the Ki is 68.9 nM.

`C[C@H](N)COc1cnc(Cl)c(Br)c1.Cc1ccc(S(=O)(=O)O)cc1` [Example 7, 5-[(S)-2-amino-1-propyloxy]-2-chloro-3-bromo pyridine p-toluenesulfonic acid]: the “Analgesic MED (μmol/kg)” value with mouse hot plate paradigm is “* (no effect at 62)”. For the same compound, the Ki in experiment [1] (setting [2]) was found to be 1.55 nM.

Take `C[C@@H](COc1cnc(Cl)c(Br)c1)N(C)C.Cc1ccc(S(=O)(=O)O)cc1` [Example 8, 5-[(S)-2-dimethylamino-1-propyloxy]-2-chloro-3-bromo pyridine p-toluenesulfonic acid]: in the experiment on mouse hot plate paradigm, the “Analgesic MED” value amounted to 62 µmol/kg. Moreover, the Ki in experiment [1] (setting [2]) was found to be 30.8 nM.

Turning to `CN[C@@H](C)COc1cnc(Cl)c(Br)c1.Cc1ccc(S(=O)(=O)O)cc1` [Example 9, 5-[(S)-2-methylamino-1-propyloxy]-2-chloro-3-bromo pyridine p-toluenesulfonic acid], the “Analgesic MED (μmol/kg)” value in the experiment on mouse hot plate paradigm is “** (no effect at 6.2)”. Also, the Ki in experiment [1] (setting [2]) came to 10.9 nM.

Consider `Cc1cc(OC[C@H](C)N)cnc1Cl.Cc1ccc(S(=O)(=O)O)cc1` [Example 10, 5-[(S)-2-amino-1-propyloxy]-2-chloro-3-methyl pyridine p-toluenesulfonic acid], for which the “Analgesic MED” value in the experiment on mouse hot plate paradigm was 62 µmol/kg. Also, the Ki in experiment [1] (setting [2]) stood at 0.525 nM.

As for `Cc1cc(OC[C@H](C)N(C)C)cnc1Cl.Cc1ccc(S(=O)(=O)O)cc1` [Example 11, 5-[(S)-2-dimethylamino-1-propyloxy]-2-chloro-3-methyl pyridine p-toluenesulfonic acid], the “Analgesic MED (μmol/kg)” value in the experiment on mouse hot plate paradigm is listed as “* (no effect at 62)”. In experiment [1] (setting [2]), the Ki turned out to be 9.6 nM.

For the compound `CC[C@H](N)COc1ccc(F)nc1` [Example 16, 5-[(S)-2-amino-1-butyloxy]-2-fluoro pyridine p-toluenesulfonic acid], in experiment [1] (setting [2]), the Ki was found to be 39.5 nM.

Turning to `CC[C@@H](COc1ccc(F)nc1)NC` [Example 17, 5-[(S)-2-methylamino-1-butyloxy]-2-fluoro pyridine p-toluenesulfonic acid], the Ki in experiment [1] (setting [2]) was 225 nM.

`N[C@H](COc1cnc(Cl)c(Br)c1)Cc1ccccc1` [Example 21, 5-[(S)-2-amino-3-phenyl-1-propyloxy]-2-chloro-3-bromo pyridine p-toluenesulfonic acid]: the Ki in experiment [1] (setting [2]) was found to be 102 nM.

For `CN(C)[C@H](COc1cnc(Cl)c(Br)c1)Cc1ccccc1` [Example 22, 5-[(S)-2-dimethylamino-3-phenyl-1-propyloxy]-2-chloro-3-bromo pyridine p-toluenesulfonic acid], in experiment [1] (setting [2]), the Ki was determined as 319 nM.

In the case of `C[C@H](COc1cnc(Cl)c(Br)c1)N(C)C` [Example 33, 5-[(R)-2-dimethylamino-1-propyloxy]-2-chloro-3-bromo pyridine p-toluenesulfonic acid], the Ki in experiment [1] (setting [2]) came to 11.9 nM.

For the compound `C[C@@H](N)COc1cnc(Cl)c(C=Cc2ccncc2)c1` [Example 38, 5-[(R)-2-amino-1-propyloxy]-2-chloro-3-(4-vinylpyridinyl) pyridine p-toluenesulfonic acid], the Ki in experiment [1] (setting [2]) was determined as 0.0809 nM.

For `CCN[C@H](C)COc1ccc(Cl)nc1` [Example 41, 5-[(R)-2-ethylamino-1-propyloxy]-2-chloro pyridine p-toluenesulfonic acid], the Ki in experiment [1] (setting [2]) came to 2310 nM.

As for `CCCN[C@H](C)COc1ccc(Cl)nc1` [Example 42, 5-[(R)-2-(1-propyl)amino-1-propyloxy]-2-chloro pyridine p-toluenesulfonic acid], the Ki in experiment [1] (setting [2]) is 7530 nM.

As to `CC(N)CCOc1ccc(F)nc1` (centres unmarked) [Example 43, 5-(3-Amino-1-butyloxy)-2-fluoro pyridine p-toluenesulfonic acid], the Ki in experiment [1] (setting [3]) stood at 122 nM.

Regarding `CC(N)CCOc1ccc(Cl)nc1` (centres unmarked) [Example 44, 5-(3-Amino-1-butyloxy)-2-chloropyridine p-toluenesulfonate], the Ki in experiment [1] (setting [3]) amounted to 20 nM.

On to `CC(CCOc1ccc(Cl)nc1)N(C)C` (centres unmarked) [Example 45, 5-(3-Dimethylamino-1-butyloxy]-2-chloro pyridine p-toluenesulfonic acid], for which the Ki in experiment [1] (setting [3]) stood at 18 nM.

For the compound `CC(CCOc1cnc(Cl)c(Br)c1)N(C)C` (centres unmarked) [Example 46, 5-(3-Dimethylamino-1-butyloxy)-2-chloro-3-bromopyridine p-toluenesulfonic acid], the Ki in experiment [1] (setting [3]) amounted to 3.1 nM.

As to `CC(N)CCOc1cnc(Cl)c(Br)c1` (centres unmarked) [Example 47, 5-(3-Amino-1-butyloxy)-2-chloro-3-bromo-pyridine p-toluenesulfonic acid], in experiment [1] (setting [3]), the Ki stood at 31 nM.

As for `Cc1cc(OCCC(C)N(C)C)cnc1Cl` (centres unmarked) [Example 48, 5-(3-dimethylamino-1-butyloxy]-2-chloro-methylpyridine p-toluenesulfonic acid], the Ki in experiment [1] (setting [3]) is 1.3 nM.

`Cc1cc(OCCC(C)N)cnc1Cl` (centres unmarked) [Example 49, 5-(3-Amino-1-butyloxy)-2-chloro-3-methyl-pyridine p-toluenesulfonic acid]: the Ki in experiment [1] (setting [3]) is 25 nM.

The values above are taken from patent US20010034357A1, “Substituted pyridine compounds useful for controlling chemical synaptic transmission” (priority 2000, published 2001).
